Legend:
Settings in all cases: 500 μM ATPγS vs none; normal (aerated) culture lysate; competitive
[1] = molecular target: ATP-dependent protease ATP-binding subunit, ClpC1 (Mycobacterium tuberculosis, UniProt P9WPC9)
[2] = molecular target: Adenylate kinase, Adk (Mycobacterium tuberculosis, UniProt P9WKF5)
[3] = molecular target: Universal stress protein (Mycobacterium tuberculosis, UniProt P9WLB5)
[4] = molecular target: Phosphoglycerate kinase, Pgk (Mycobacterium tuberculosis, UniProt P9WID1)
[5] = molecular target: Polyphosphate kinase, Ppk (Mycobacterium tuberculosis, UniProt P9WHV9)
Sequence of Polyphosphate kinase, Ppk (P9WHV9 whole entry): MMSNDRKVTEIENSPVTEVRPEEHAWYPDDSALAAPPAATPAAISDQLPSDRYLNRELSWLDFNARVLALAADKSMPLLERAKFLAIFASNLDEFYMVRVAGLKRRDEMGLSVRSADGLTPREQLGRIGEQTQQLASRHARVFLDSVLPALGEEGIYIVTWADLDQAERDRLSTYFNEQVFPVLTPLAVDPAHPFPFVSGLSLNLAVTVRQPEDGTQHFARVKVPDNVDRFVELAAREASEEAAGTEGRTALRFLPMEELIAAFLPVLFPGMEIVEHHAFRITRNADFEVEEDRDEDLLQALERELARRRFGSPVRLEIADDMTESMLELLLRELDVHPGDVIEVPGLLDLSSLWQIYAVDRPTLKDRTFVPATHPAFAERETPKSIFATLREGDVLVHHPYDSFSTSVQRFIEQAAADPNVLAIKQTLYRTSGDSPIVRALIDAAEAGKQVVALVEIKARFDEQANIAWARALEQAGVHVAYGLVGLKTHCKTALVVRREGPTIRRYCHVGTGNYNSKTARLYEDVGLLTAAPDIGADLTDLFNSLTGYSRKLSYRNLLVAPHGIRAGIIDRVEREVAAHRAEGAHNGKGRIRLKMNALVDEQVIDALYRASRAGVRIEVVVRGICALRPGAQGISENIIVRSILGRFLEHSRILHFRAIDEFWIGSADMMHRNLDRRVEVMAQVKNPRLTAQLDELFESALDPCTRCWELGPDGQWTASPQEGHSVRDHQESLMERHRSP

Sequence of ATP-dependent protease ATP-binding subunit, ClpC1 (P9WPC9 whole entry): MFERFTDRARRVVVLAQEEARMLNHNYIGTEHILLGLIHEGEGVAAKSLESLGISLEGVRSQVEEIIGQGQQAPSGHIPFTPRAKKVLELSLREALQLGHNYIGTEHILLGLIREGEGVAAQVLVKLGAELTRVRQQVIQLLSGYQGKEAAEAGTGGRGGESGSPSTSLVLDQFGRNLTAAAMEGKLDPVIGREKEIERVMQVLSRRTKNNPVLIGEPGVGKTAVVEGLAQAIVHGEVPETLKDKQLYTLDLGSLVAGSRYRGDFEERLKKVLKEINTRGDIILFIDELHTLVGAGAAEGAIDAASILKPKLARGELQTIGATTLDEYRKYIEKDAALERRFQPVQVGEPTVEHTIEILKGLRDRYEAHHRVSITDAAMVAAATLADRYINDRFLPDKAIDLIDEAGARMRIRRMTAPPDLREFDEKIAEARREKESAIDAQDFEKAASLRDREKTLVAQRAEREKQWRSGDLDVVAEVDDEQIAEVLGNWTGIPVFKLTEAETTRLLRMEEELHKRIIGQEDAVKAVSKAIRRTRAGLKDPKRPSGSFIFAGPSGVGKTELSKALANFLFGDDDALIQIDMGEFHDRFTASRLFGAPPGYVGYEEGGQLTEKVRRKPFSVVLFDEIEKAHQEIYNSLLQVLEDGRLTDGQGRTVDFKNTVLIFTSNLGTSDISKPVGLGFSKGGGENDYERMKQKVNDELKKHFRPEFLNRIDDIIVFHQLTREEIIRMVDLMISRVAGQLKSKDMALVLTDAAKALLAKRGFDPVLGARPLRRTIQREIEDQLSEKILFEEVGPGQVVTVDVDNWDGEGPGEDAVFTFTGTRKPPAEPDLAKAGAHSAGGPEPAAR
Sequence of Phosphoglycerate kinase, Pgk (P9WID1 whole entry): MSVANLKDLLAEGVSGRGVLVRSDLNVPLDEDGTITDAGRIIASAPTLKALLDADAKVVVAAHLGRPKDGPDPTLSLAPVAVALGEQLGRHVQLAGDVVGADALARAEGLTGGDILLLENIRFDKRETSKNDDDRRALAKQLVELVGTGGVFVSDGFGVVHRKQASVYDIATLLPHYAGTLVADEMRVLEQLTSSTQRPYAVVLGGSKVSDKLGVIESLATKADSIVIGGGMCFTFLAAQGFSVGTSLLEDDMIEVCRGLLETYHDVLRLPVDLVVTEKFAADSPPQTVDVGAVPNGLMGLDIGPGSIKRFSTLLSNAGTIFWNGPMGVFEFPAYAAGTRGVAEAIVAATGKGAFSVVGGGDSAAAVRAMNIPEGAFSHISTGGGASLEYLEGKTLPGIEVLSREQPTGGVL
Sequence of Adenylate kinase, Adk (P9WKF5 whole entry): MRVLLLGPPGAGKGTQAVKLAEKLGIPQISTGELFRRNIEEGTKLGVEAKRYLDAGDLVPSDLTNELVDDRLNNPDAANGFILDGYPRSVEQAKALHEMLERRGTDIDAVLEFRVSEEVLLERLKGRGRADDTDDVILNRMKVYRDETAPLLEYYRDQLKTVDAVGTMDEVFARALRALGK
Sequence of Universal stress protein (P9WLB5 whole entry): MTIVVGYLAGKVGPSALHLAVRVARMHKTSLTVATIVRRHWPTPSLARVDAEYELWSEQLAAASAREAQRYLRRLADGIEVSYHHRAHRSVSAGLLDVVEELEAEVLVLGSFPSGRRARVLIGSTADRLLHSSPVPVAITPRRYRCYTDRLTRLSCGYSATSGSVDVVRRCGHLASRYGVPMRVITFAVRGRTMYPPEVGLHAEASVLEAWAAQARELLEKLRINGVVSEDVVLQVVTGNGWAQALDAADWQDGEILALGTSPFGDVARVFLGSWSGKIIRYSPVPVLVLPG

## Nc1ncnc2c1ncn2[C@@H]1O[C@H](COP(=O)(O)OP(=O)(O)OP(O)(O)=S)[C@@H](O)[C@H]1O [ATPγS, adenosine 5′-[γ-thio]triphosphate tetralithium]
[1]
  Fold change: 3.98 fold
[2]
  Fold change: 2.12 fold
[3]
  Fold change: 4.75 fold
[4]
  Fold change: 6.56 fold
[5]
  Fold change: 6.80 fold
